From the NIST ThermoML archive (doi:10.1016/j.jct.2011.08.016)

Conditions: Liquid, Vibrating tube method

CCCCCCCCCC [decane]
mass density [kg/m3]
Conditions | 313.07 K | 323 K | 332.87 K | 342.78 K | 352.8 K | 362.73 K
1000 kPa | 715.64 | 707.96 | 700.33 | 692.65 | – | –
2000 kPa | 716.68 | 708.93 | 701.26 | 693.68 | 686.08 | 678.44
3000 kPa | 717.38 | 709.81 | 702.21 | 694.72 | 687.17 | 679.58
4000 kPa | 718.16 | 710.88 | 703.17 | 695.7 | 688.23 | 680.71
5000 kPa | 719.02 | 711.52 | 704.12 | 696.68 | 689.3 | 681.85
6000 kPa | 719.65 | 712.48 | 705.07 | 697.68 | 690.33 | 682.98
7000 kPa | 720.52 | 713.3 | 705.98 | 698.61 | 691.38 | 684.09
8000 kPa | 721.28 | 714.23 | 706.88 | 699.57 | 692.38 | 685.16
9000 kPa | 722.11 | 715.05 | 707.79 | 700.54 | 693.41 | 686.25
10000 kPa | 723.13 | 715.91 | 708.65 | 701.49 | 694.37 | 687.29
11000 kPa | 723.65 | 716.74 | 709.52 | 702.4 | 695.36 | 688.32
12000 kPa | 724.48 | 717.54 | 710.39 | 703.29 | 696.32 | 689.33
13000 kPa | 725.48 | 718.35 | 711.26 | 704.14 | 697.29 | 690.34
14000 kPa | 726.15 | 719.15 | 712.07 | 705.05 | 698.22 | 691.28
15000 kPa | 726.86 | 719.92 | 712.9 | 705.93 | 699.15 | 692.36
16000 kPa | 727.49 | 720.7 | 713.71 | 706.79 | 700.03 | –
17000 kPa | 728.18 | 721.46 | 714.52 | 707.6 | 700.94 | –
18000 kPa | 729.07 | 722.22 | 715.32 | – | 701.82 | –
18010 kPa | – | – | – | 708.57 | – | –
19000 kPa | 729.72 | 722.97 | 716.1 | 709.45 | 702.71 | –
20000 kPa | 730.26 | 723.71 | 716.88 | 710.3 | 703.59 | –
21000 kPa | 731.22 | 724.45 | 717.65 | 710.91 | 704.44 | –
22000 kPa | 731.8 | 725.18 | 718.43 | 711.92 | 705.25 | –
23000 kPa | 732.7 | 725.92 | 719.19 | 712.48 | 706.14 | –
24000 kPa | 733.26 | 726.62 | 719.99 | 713.42 | 706.95 | –
25000 kPa | 733.93 | 727.42 | 720.76 | 714.1 | 707.83 | –
